Columns and labels:
Assay in all cases: In vivo IPTG dose-response of LacI-regulated eYFP expression from the pVER plasmid in E. coli grown in rich M9 medium at 37 °C, measured by flow cytometry and fitted to the Hill equation by Bayesian MCMC (posterior mean and SD).
Assay type in all cases: cell-based, E. coli MG1655Δlac
Settings in all cases: read-out: log_ec50 (base-10 logarithm of EC50 in μmol/L) (converted)
pVER-IPTG-004 = target: T1, pVER-IPTG-004 (Escherichia coli, UniProt P03023, A87P/E357G/V301M)
T1 construct: gene lacI; LacI expressed from pVER plasmid
T1 sequence (P03023 whole entry A87P/V301M/E357G): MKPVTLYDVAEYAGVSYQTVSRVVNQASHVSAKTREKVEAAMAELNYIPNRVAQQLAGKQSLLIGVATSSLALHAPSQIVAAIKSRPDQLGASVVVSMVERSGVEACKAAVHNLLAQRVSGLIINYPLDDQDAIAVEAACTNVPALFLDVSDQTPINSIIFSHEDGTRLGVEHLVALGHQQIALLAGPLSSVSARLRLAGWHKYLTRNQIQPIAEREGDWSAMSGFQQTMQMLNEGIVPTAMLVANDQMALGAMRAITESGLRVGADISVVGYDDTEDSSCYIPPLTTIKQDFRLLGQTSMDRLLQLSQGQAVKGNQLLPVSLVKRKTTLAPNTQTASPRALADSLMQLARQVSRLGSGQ
Protocol: (§1) All reported measurements were completed using E. coli strain MG1655Δlac, in which the lactose operon of E. coli strain MG1655 (ATCC #47076) was replaced with the bleomycin resistance gene from Streptoalloteichus hindustanus (Shble).
(§2) Dose-response curves were measured with flow cytometry using E. coli MG1655Δlac transformed with variants of the pVER plasmid, described previously. The plasmid contained different variants of the lacI coding DNA sequence (CDS), as described in the text, and an expression cassette with enhanced yellow fluorescent protein (eYFP) under the control of the lactose operator (lacO). The lacI CDS was verified with Sanger sequencing for each variant.
(§3) All cultures were grown in a rich M9 media (3 g/L KH2PO4, 6.78 g/L Na2HPO4, 0.5 g/L NaCl, 1 g/L NH4Cl, 0.1 mmol/L CaCl2, 2 mmol/L MgSO4, 4% glycerol, and 20 g/L casamino acids) supplemented with 50 μg/mL kanamycin.
(§4) • Prepare first growth plate, with 450 μL rich M9 media in each well. • Pipette 50 μL of starter culture into each well in rows B-G of the plate (leaving rows A and H blank). • Use a E. coli containing a different lacI variant for each row. • Seal first growth plate with gas permeable membrane. • Incubate plate in plate reader for 12 h to 14 h. • Grow to stationary to provide a reproducible starting point for each measurement. • Prepare second growth plate with 490 μL in each well. • Dilution series of isopropyl-β-D-thiogalactopyranoside (IPTG): 11 columns of a 2-fold serial dilution gradient and one column with zero IPTG. • Ten minutes before the end of the incubation cycle for the first growth plate, move the second growth plate to a heated station set to 47°C. • Ten minutes at 47°C will pre-warm the media in the plate to 37°C. • De-seal the first growth plate (after completion of the stationary-phase incubation cycle). • Pipette 10 μL from each well in the first growth plate to the corresponding well in the second growth plate. • 50-fold dilution; using a 96-channel pipetting head. • Seal second growth plate with gas permeable membrane. • Incubate second growth plate in plate reader for 160 minutes. • Sufficient for approximately 10-fold increase in cell density or 3.3 doublings. • Prepare third growth plate with 450 μL in each well. • Same dilution series as in second growth plate. • Ten minutes before the end of the incubation cycle for the second growth plate, move the third growth plate to a heated station set to 47°C. • De-seal the second growth plate (after completion of the 160 minute incubation cycle). • Pipette 50 μL from each well in the second growth plate to the corresponding well in the third growth plate. • 10-fold dilution; using a 96-channel pipetting head. • Seal third growth plate with gas permeable membrane. • Incubate third growth plate in plate reader for 160 minutes. • Prepare flow cytometry sample plate (round-bottom 96-well plate, Falcon, 351177). • Each well in rows B-G: 195 μL 1x PBS with 170 μg/mL chloramphenicol (Fisher BioReagents, cat. #BP904-100). • Rows A and H: PBS blanks, focusing fluid blanks, and space for calibration bead sample • At the end of the incubation cycle for the third growth plate, pipette 5 μL from each well to the corresponding well in the flow cytometry sample plate.
(§5) Flow cytometry samples were measured with an Attune NxT flow cytometer equipped with a 96-well plate autosampler using a 488 nm excitation laser and a 530 nm ± 15 nm bandpass emission filter. Blank samples were measured with each batch of cell measurements, and an automated gating algorithm was used to discriminate cell events from non-cell events. Fluorescence calibration beads (Spherotech, part no. RCP-30-20A) were also measured with each batch of samples to facilitate calibration of flow cytometry data to molecules of equivalent fluorescein (MEF). […]

pVER-IPTG-002(V80L) = target: T2, pVER-IPTG-002(V80L) (Escherichia coli, UniProt P03023, M254I/S158R/T154I/V238D/V264I/V80L/V96E)
T2 construct: gene lacI; LacI expressed from pVER plasmid
T2 sequence (P03023 whole entry V80L/V96E/T154I/S158R/V238D/M254I/V264I): as the sequence (P03023 whole entry A87P/V301M/E357G) above, with V80L, P87A, V96E, T154I, S158R, V238D, M254I, V264I, M301V, G357E counted along it
Protocol: as §1, §2, §3, §4, §5

pVER-IPTG-079 = target: T3, pVER-IPTG-079 (Escherichia coli, UniProt P03023, A116T/S190C/T141I/V99E)
T3 construct: gene lacI; LacI expressed from pVER plasmid
T3 sequence (P03023 whole entry V99E/A116T/T141I/S190C): as the sequence (P03023 whole entry A87P/V301M/E357G) above, with P87A, V99E, A116T, T141I, S190C, M301V, G357E counted along it
Protocol: as §1, §2, §3, §4, §5

pVER-IPTG-076 = target: T4, pVER-IPTG-076 (Escherichia coli, UniProt P03023, A337S/L198Q/S102R/S260F/S93N/V99E)
T4 construct: gene lacI; LacI expressed from pVER plasmid
T4 sequence (P03023 whole entry S93N/V99E/S102R/L198Q/S260F/A337S): as the sequence (P03023 whole entry A87P/V301M/E357G) above, with P87A, S93N, V99E, S102R, L198Q, S260F, M301V, A337S, G357E counted along it
Protocol: as §1, §2, §3, §4, §5

pVER-IPTG-010 = target: T5, pVER-IPTG-010 (Escherichia coli, UniProt P03023, A72V/I210F/K84N/M254T/T336S)
T5 construct: gene lacI; LacI expressed from pVER plasmid
T5 sequence (P03023 whole entry A72V/K84N/I210F/M254T/T336S): as the sequence (P03023 whole entry A87P/V301M/E357G) above, with A72V, K84N, P87A, I210F, M254T, M301V, T336S, G357E counted along it
Protocol: as §1, §2, §3, §4, §5

pVER-IPTG-002(S70R) = target: T6, pVER-IPTG-002(S70R) (Escherichia coli, UniProt P03023, M254I/S158R/S70R/T154I/V238D/V264I/V96E)
T6 construct: gene lacI; LacI expressed from pVER plasmid
T6 sequence (P03023 whole entry S70R/V96E/T154I/S158R/V238D/M254I/V264I): as the sequence (P03023 whole entry A87P/V301M/E357G) above, with S70R, P87A, V96E, T154I, S158R, V238D, M254I, V264I, M301V, G357E counted along it
Protocol: as §1, §2, §3, §4, §5

pVER-IPTG-005 = target: T7, pVER-IPTG-005 (Escherichia coli, UniProt P03023, A176S/E172D/F226Y/G91D/R101G/S158C/T167M/T276S/T299A/V94A)
T7 construct: gene lacI; LacI expressed from pVER plasmid
T7 sequence (P03023 whole entry G91D/V94A/R101G/S158C/T167M/E172D/A176S/F226Y/T276S/T299A): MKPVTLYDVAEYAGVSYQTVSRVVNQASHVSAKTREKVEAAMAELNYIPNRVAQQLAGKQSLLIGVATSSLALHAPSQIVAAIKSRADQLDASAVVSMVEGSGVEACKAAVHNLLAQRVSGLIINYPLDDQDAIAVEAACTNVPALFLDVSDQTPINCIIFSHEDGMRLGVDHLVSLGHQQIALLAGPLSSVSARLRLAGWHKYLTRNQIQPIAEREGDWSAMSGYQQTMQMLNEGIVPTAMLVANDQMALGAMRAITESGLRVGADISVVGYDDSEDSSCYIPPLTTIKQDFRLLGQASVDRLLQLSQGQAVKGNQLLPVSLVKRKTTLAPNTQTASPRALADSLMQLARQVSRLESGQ
Protocol: as §1, §2, §3, §4, §5

pVER-IPTG-082 = target: T8, pVER-IPTG-082 (Escherichia coli, UniProt P03023, G200A/Q209R/Q317L/R263H/S190C/V94M)
T8 construct: gene lacI; LacI expressed from pVER plasmid
T8 sequence (P03023 whole entry V94M/S190C/G200A/Q209R/R263H/Q317L): as the sequence (P03023 whole entry A87P/V301M/E357G) above, with P87A, V94M, S190C, G200A, Q209R, R263H, M301V, Q317L, G357E counted along it
Protocol: as §1, §2, §3, §4, §5

pVER-IPTG-002(V136E) = target: T9, pVER-IPTG-002(V136E) (Escherichia coli, UniProt P03023, M254I/S158R/T154I/V136E/V238D/V264I/V96E)
T9 construct: gene lacI; LacI expressed from pVER plasmid
T9 sequence (P03023 whole entry V96E/V136E/T154I/S158R/V238D/M254I/V264I): as the sequence (P03023 whole entry A87P/V301M/E357G) above, with P87A, V96E, V136E, T154I, S158R, V238D, M254I, V264I, M301V, G357E counted along it
Protocol: as §1, §2, §3, §4, §5

pVER-IPTG-077 = target: T10, pVER-IPTG-077 (Escherichia coli, UniProt P03023, A222T/D152E/I64V/K327N/L295M/N208I/Q131R/T141A/V95M)
T10 construct: gene lacI; LacI expressed from pVER plasmid
T10 sequence (P03023 whole entry I64V/V95M/Q131R/T141A/D152E/N208I/A222T/L295M/K327N): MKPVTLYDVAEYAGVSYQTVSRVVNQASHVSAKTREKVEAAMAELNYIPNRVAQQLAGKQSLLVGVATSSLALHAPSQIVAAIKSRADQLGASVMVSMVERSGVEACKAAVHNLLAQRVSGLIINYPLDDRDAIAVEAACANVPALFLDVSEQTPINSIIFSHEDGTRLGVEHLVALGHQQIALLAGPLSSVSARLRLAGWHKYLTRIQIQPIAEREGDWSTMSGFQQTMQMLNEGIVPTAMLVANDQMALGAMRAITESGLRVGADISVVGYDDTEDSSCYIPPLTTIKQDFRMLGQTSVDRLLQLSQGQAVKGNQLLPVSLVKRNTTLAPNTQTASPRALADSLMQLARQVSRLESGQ
Protocol: as §1, §2, §3, §4, §5

pVER-IPTG-001 = target: T11, pVER-IPTG-001 (Escherichia coli, UniProt P03023, D130E/D267N/N333I/Q55H/T258I/V192A/Y273H)
T11 construct: gene lacI; LacI expressed from pVER plasmid
T11 sequence (P03023 whole entry Q55H/D130E/V192A/T258I/D267N/Y273H/N333I): as the sequence (P03023 whole entry A87P/V301M/E357G) above, with Q55H, P87A, D130E, V192A, T258I, D267N, Y273H, M301V, N333I, G357E counted along it
Protocol: as §1, §2, §3, §4, §5

pVER-IPTG-006 = target: T12, pVER-IPTG-006 (Escherichia coli, UniProt P03023, A241V/A341T/D88Y/L305M/L319F/L346S/N246S/P339T)
T12 construct: gene lacI; LacI expressed from pVER plasmid
T12 sequence (P03023 whole entry D88Y/A241V/N246S/L305M/L319F/P339T/A341T/L346S): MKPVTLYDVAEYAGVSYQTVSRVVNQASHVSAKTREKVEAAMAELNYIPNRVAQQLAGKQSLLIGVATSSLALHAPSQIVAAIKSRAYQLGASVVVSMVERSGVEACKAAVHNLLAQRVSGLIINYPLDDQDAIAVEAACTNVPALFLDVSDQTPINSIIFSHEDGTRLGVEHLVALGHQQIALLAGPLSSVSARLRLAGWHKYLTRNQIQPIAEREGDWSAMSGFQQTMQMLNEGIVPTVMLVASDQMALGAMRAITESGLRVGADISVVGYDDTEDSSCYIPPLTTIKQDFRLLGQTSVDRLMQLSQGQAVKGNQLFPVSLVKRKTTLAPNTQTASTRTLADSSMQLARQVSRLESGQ
Protocol: as §1, §2, §3, §4, §5

Q: For `CC(C)S[C@@H]1O[C@H](CO)[C@H](O)[C@H](O)[C@H]1O` [IPTG, isopropyl-β-D-thiogalactopyranoside], which EC50 (pVER-IPTG-004) is on record?
A: The EC50 was 234 µmol/L.

Q: What about the EC50 (pVER-IPTG-002(V80L)) of the same compound?
A: The EC50 was 47.7 µmol/L.

Q: And the EC50 (pVER-IPTG-079)?
A: The EC50 was 7.24 µmol/L.

Q: What about the EC50 (pVER-IPTG-076) of the same compound?
A: Its EC50 is 4.31 µmol/L.

Q: And the EC50 (pVER-IPTG-010)?
A: The EC50 was 9.17 µmol/L.

Q: What about the EC50 (pVER-IPTG-002(S70R)) of the same compound?
A: The EC50 was 4690 µmol/L.

Q: And the EC50 (pVER-IPTG-005)?
A: Its EC50 is 203 µmol/L.

Q: And the EC50 (pVER-IPTG-082)?
A: The EC50 was 27.8 µmol/L.

Q: What about the EC50 (pVER-IPTG-002(V136E)) of the same compound?
A: The EC50 was 464000 µmol/L.

Q: And the EC50 (pVER-IPTG-077)?
A: Its EC50 is 2.95 µmol/L.

Q: What about the EC50 (pVER-IPTG-001) of the same compound?
A: The EC50 was 774 µmol/L.

Q: And the EC50 (pVER-IPTG-006)?
A: Its EC50 is 540 µmol/L.

— article PMC10057847, “Precision engineering of biological function with large-scale measurements and machine learning” (PLOS ONE, 2023)
